From paper PMC10610289, “Novel Baicalein-Derived Inhibitors of Plasmodium falciparum” (Pathogens, 2023)
Entries after “also recorded” stand apart in the source; their conditions may differ.

Columns and labels:
[1] = test system: P. falciparum female gametocytes; test: P. falciparum dual gamete formation assay (PfDGFA), female; type: cell-based; settings: Plasmodium falciparum, read-out: DGF Assay—Inhibition, female
Experimental: (§1) The FNDR-10132 was evaluated in a male and female gametocyte functional viability assay by following the procedure described in Ruecker et al..

[2] = test system: P. falciparum male gametocytes; test: P. falciparum dual gamete formation assay (PfDGFA), male; type: cell-based; settings: Plasmodium falciparum, read-out: DGF Assay—Inhibition, male
Experimental: as §1

[3] = test system: Dd2 DDD107498 (PfeEF2 Y186N); test: Cross-resistance panel, Dd2 DDD107498; type: cell-based, Plasmodium falciparum
Experimental: (§2) Parasite lines used in the study were P. falciparum 3D7 (Pf3D7 Chloroquine-sensitive) and Plasmodium falciparum K1 (PfK1 Chloroquine-resistant) sourced from the Malaria Research and Reference Reagent Resource Center (MR4), ATCC, Manassas, VA, USA. FNDR-10132 was tested against a cross-resistance panel at Swiss TPH, Allschwil, Switzerland.

[4] = test system: Dd2 390048 (Pfpi4k S743T); test: Cross-resistance panel, Dd2 390048; type: cell-based, Plasmodium falciparum
Experimental: as §2

[5] = test system: Dd2 GNF156 (Pfcarl Ile1139Lys); test: Cross-resistance panel, Dd2 GNF156; type: cell-based, Plasmodium falciparum
Experimental: as §2

[6] = Microsomal stability assay; type: in vitro ADME, mouse; settings: 37 °C
Experimental: Dipotassium hydrogen phosphate, Potassium dihydrogen phosphate, and formic acid were obtained from Merck, Rahway, NJ, USA. Methanol–acetonitrile was procured from Biosolve Chimie, Dieuze, France. Mouse liver microsomes, 20 mg/mL, were received from a third-party vendor in India. Imipramine HCl (catalog no. I0971) and Carbamazepine (catalog no. O0363) were procured from TCI, Gurugram, India. ß-NADPH (product code-99197) was procured from Sisco Research Laboratories, Mumbai, India.
The in vitro metabolic stability was determined in mouse liver microsomes. To prepare a mouse liver microsomes (MLM) homogenate, 100 µL of microsomes was resuspended in 100 mM phosphate buffer (0.607 g K2HPO4 and 0.212 g KH2PO4 dissolved in 50 mL of de-ionized water), achieving a working concentration of 0.625 mg/mL. Positive control (Imipramine) and test compounds (FNDR-10132, 10136, 10139, and 10999) were spiked individually into the MLM homogenate at a final concentration of 1 µm. To pre-incubate, they were placed in a water bath at 37 °C for 5 min. At least 30 µL was collected in triplicates (0 min samples), and the reaction was quenched using 90 µL of acetonitrile, which contained 500 ng/mL of Carbamazepine as an internal standard. Nicotinamide Adenine Dinucleotide Phosphate (NADPH) in phosphate buffer was added to the remaining MLM at a 1 mM final concentration and further incubated at 37 °C. At the indicated time intervals, 30 µL aliquots were sampled in triplicates, and the reaction was quenched with acetonitrile containing Carbamazepine as the internal standard. The samples were centrifugated for 10 min at 13,000 rpm, and the supernatant was separated for further analysis.
The analytical method for microsomal stability and protein binding assay is as follows: Chromatographic elution was achieved following isocratic flow on an X-Terra MS C18 50 × 4.6 mm, 2.5 µm, Waters, USA, maintained at 40 °C. The mobile phase contained aqueous 0.1% formic acid in water in solvent A and acetonitrile acidified with 0.1% formic acid in solvent B delivered at 0.300 mL/min. The flow was 15% from solvent A and 85% from solvent B for 4.5 min. A total of 7 μL of the sample was injected for the assay. […] Detection was performed through multiple reaction monitoring (MRM). The ion transitions are as follows: Imipramine, FNDR-10132, FNDR-10136, FNDR-10139, FNDR-10999, and IS at m/z 281.1→86.0, 355.2→115.1, 354.0→298.0, 350.0→186.1, 349→305.2, and m/z 237.0→194.0, respectively. An optimized cone voltage and collision energy were used to ionize the compounds. The MS parameters follow as follows: cone gas flow 50 (L/h); ion source temperature 150 °C; desolvation gas flow 900 (L/h); desolvation temperature 400 °C; and collision gas flow 0.10 (mL/min).

Plasma stability = type: in vitro ADME
Description: (§3) Table 5 The compound FNDR-10132 progression profile. | column: FNDR-10132

THP-1 = test: Cytotoxicity in THP-1; type: cell-based
Description: as §3

[7] = test system: Plasmodium yoelii N67 (Chloroquine-resistant); test: In vivo antimalarial assay in Swiss mice; settings: 100 mg/kg ×4 days, oral
Experimental: All animal experiments were performed following the institutional animal ethics committee (IAEC). Laboratory-bred Swiss albino mice (both male and female) weighing 20–22 g were obtained from breeding colonies at the National Laboratory Animal Centre at the CSIR-CDRI, Lucknow, with due permission from the animal ethics committee (IAEC/2018/16/Renew-1/Dated-05/04/2019). The rodent malaria parasite Plasmodium yoelii N67 (chloroquine-resistant) was used for the study. This parasite was maintained by serial passage in healthy Swiss mice of either sex.
Swiss mice were inoculated with a standard inoculum of 1 × 106 P. yoelii N67 parasitized erythrocytes intraperitoneally. The 22-gauge hypodermic needle was used to infect the mice and was injected with a 0.5 mL (infected RBCs) volume. Treatment was initiated from day 0 to day 3 (total 4 days) once daily, and different routes of administration, viz., oral, intravenous, intraperitoneally, and subcutaneous, were used. For in vivo evaluation, compounds were dissolved in 300 µL of DMSO and were made up with MilliQ. The efficacy of in vitro active compounds was evaluated for in vivo activity at different doses, and the desired daily dose was administered in a 0.2 mL volume. A drop of blood from the mice’s tails was collected regularly throughout the experiment for parasitemia estimation. The group’s mean value was calculated using the percentage suppression of parasitemia compared with the untreated control group.

[8] = Body weight of mice during treatment; type: in vivo, Swiss mice; settings: 100 mg/kg oral
Description: One crucial aspect of evaluating potential malaria treatments is assessing their safety and tolerance in the host organism. In this regard, the present study closely monitored the body weights of the mice throughout the drug treatment.

With `CCCCCCc1ccc(-c2cc(=O)c3c(O)c(O)c(O)cc3o2)cc1` [FNDR-10132] the inhibition at 1 µM [1] was 9.5%, the inhibition at 1 µM [2] was 1.6% and the IC50 ([3]; Plasmodium falciparum, DD2) was 211 nM. The “Fold shift IC50 rel. Dd2” value ([3]; strain Dd2 DDD107498) was 0.6, the IC50 ([4]; Plasmodium falciparum, DD2) was 290 nM and the “Fold shift IC50 rel. Dd2” value ([4]; strain Dd2 390048) was 0.9. For the same compound, the IC50 ([5]; Plasmodium falciparum, DD2) was 292 nM, the “Fold shift IC50 rel. Dd2” value ([5]; strain Dd2 GNF156) was 0.9 and the “stability in mouse liver microsomes (in words)” value ([6]; 60 min, ß-NADPH) was “moderate stability”. For the same compound, the “Microsomal Stability (Mouse)” value ([6]; at 30 min, 1 µM, NADPH) was 99%, the “Plasma Stability” value (Plasma stability; at 30 min) was 87.61% and the “Plasma Stability” value (Plasma stability; at 45 min) was 80.97%. The “Cytotoxicity THP-1” value (THP-1) was 90 µM, the “% Parasitemia ± S.D on Day 4” value [7] was 8.5 ± 1.39 (4) % and the “% Parasitemia ± S.D on Day 7” value [7] was 26.15 ± 8.70 (4) %. The “% Parasitemia ± S.D on Day 10” value [7] was 24.07 ± 3.69 (3) %, the “% Parasitemia ± S.D on Day 14” value [7] was 46.5 ± 4.2 (2) % and the “% Parasitemia ± S.D on Day 21” value [7] was “Dead”. The “Mean Survival Time (MST) Days ± SD” value [7] was 13.5 ± 2.3 days, the “Day 4 % Suppression” value ([7]; Swiss mice) was 44% and the “Weight of Mice Day after the Last Dose of Treatment (Day 4)” value [8] was 27.5 gm. For the same compound, the “Weight of Mice at the Initiation of Treatment (Day 0)” value [8] was 25 gm, the “weight loss / tolerability (in words)” value [8] was “no significant weight loss; also recorded: well-tolerated” and the “Weight Gain” value ([8]; Day 0 to Day 4) was 2.5 gm.
